Measured values from PMC7150870 (Toxins, 2020).
Marks after values point to notes of the source that are not given here.

Experiments:
HEK293T = type: cell-based, human
P-gp = P-gp (Homo sapiens, UniProt P08183)
Caco-2 cells [1] = settings: human (Caco-2), mouse (RAW 264.7)
cells = settings: cited from earlier work
in vitro = settings: human (HepG2, Caco-2, HEK 293T); mouse (RAW 264.7)
[2] = system: human colon adenocarcinoma HT29 cells; settings: cited from earlier work
mice = settings: mouse, in vivo, po; cited from earlier work
[3] = system: TK6, and human hepatic HepaRG cells; settings: 25 µM; cited from earlier work
epithelial cell layers = settings: after 24 h; cited from earlier work
Caco-2 cells [4] = settings: cited from earlier work
[5] = system: human small intestinal cells; settings: read-out: IC50 (not achieved up to); cited from earlier work
HEK293 cells = settings: for 2 h; cited from earlier work
Caco-2 cells [6] = settings: cited from earlier work; remark: listed apart in the source

Sequence of P-gp (P08183 whole entry, looked up): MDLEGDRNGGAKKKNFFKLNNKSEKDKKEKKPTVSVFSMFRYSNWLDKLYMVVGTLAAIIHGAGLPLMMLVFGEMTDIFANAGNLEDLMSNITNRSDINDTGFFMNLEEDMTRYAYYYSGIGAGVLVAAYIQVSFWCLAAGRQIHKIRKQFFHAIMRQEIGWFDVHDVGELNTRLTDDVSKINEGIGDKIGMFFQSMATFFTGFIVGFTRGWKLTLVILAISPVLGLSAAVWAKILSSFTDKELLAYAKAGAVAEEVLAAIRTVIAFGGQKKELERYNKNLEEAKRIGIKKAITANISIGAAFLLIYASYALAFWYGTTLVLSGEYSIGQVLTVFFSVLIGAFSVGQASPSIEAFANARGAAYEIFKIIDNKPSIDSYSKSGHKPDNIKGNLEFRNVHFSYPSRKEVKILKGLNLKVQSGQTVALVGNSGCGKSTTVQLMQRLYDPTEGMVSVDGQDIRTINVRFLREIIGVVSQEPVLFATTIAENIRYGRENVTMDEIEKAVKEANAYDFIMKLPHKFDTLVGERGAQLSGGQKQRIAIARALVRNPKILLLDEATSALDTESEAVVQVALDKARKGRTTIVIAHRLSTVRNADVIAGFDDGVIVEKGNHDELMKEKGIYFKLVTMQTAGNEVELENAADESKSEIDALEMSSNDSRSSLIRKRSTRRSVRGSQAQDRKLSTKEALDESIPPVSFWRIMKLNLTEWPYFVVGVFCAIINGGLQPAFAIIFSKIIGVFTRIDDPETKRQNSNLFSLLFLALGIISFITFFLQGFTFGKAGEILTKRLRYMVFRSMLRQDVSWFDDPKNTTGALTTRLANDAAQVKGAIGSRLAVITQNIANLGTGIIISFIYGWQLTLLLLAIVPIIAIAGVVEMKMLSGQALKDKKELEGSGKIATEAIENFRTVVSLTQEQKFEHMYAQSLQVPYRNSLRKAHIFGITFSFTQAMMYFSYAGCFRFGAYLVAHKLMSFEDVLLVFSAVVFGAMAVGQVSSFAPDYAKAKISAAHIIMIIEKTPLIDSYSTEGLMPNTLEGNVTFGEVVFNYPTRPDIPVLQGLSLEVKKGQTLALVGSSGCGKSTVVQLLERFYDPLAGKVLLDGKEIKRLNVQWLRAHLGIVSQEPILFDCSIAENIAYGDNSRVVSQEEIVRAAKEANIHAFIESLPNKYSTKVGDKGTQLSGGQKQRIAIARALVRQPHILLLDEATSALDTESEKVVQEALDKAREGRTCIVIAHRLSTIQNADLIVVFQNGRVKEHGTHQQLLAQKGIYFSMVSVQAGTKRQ

Row | Structure (SMILES) | combination index, mixture of DAS (6.58 nM) (HEK293T) | combination index, mixture of HT-2 (21.22 nM) (HEK293T) | combination index, mixture of T-2 (3.87 nM) (HEK293T) | type of interaction, mixture of DAS (6.58 nM) (HEK293T) | type of interaction, mixture of HT-2 (21.22 nM) (HEK293T) | type of interaction, mixture of T-2 (3.87 nM) (HEK293T) | percentage of DNA in comet tail with respect to the negative control (HEK 293T cells) | P-gp activation (ATP consumption) (P-gp) | transepithelial transport, Apical Medium (Caco-2 cells [1]) | transepithelial transport, Basolateral Medium (Caco-2 cells [1]) | transepithelial transport, Caco-2 Cells (Caco-2 cells [1]) | transepithelial transport, Raw 264.7 Cells (Caco-2 cells [1]) | transepithelial transport, Total (Caco-2 cells [1]) | concentration with statistically significant decrease in viability of cells (cells) [µM] | IC50 (in vitro) [nM] | further results
1 | Cc1cc(O)cc2oc(=O)c3c(O)cc(O)cc3c12 [AOH, alternariol] | 0.91 ± 0.07 Add | 0.92 ± 0.02 Add | 1.00 ± 0.09 Add | 0.91 ± 0.07 Add (key: Syn: Combination index (CI) < 0.9; Add: 0.9 ≤ CI ≤ 1; Ant: CI > 1) | 0.92 ± 0.02 Add (key: Syn: Combination index (CI) < 0.9; Add: 0.9 ≤ CI ≤ 1; Ant: CI > 1) | 1.00 ± 0.09 Add (key: Syn: Combination index (CI) < 0.9; Add: 0.9 ≤ CI ≤ 1; Ant: CI > 1) | significantly increased | activated P-gp in dose-dependent manner | 39.00 ± 22.02^cd % | 59.97 ± 2.86^h % | 0.04 ± 0.02^a % | 0.07 ± 0.02^h % | 99.08 ± 24.47^e % | 50 | > 50 | comet tails (percentage of DNA) (HEK 293T cells; 25 µM, 24 h): about 55%; metabolites found by non-target U-HPLC-MS analysis (Caco-2 cells [1]): 3-O-glucuronide and 9-O-glucuronide; concentrations significantly increasing the rate of DNA breaks [2]: ≥ 1000 nM
2 | CC1=C[C@H]2O[C@@H]3[C@H](O)C[C@](C)([C@@]2(CO)[C@H](O)C1=O)[C@]31CO1 [DON, deoxynivalenol] | 0.88 ± 0.17 Syn | 0.87 ± 0.04 Syn | 1.29 ± 0.13 Ant | 0.88 ± 0.17 Syn (key: Syn: Combination index (CI) < 0.9; Add: 0.9 ≤ CI ≤ 1; Ant: CI > 1) | 0.87 ± 0.04 Syn (key: Syn: Combination index (CI) < 0.9; Add: 0.9 ≤ CI ≤ 1; Ant: CI > 1) | 1.29 ± 0.13 Ant (key: Syn: Combination index (CI) < 0.9; Add: 0.9 ≤ CI ≤ 1; Ant: CI > 1) | significantly increased | activated P-gp in dose-dependent manner | 73.33 ± 2.90^f % | 21.48 ± 0.91^cde % | 0.00 ± 0.00^a % | 0.01 ± 0.00^a % | 94.83 ± 2.14^e % | 1 |  | LD50 for mice (mice): 46 to 78 mg/kg; genotoxicity [3]: failed to induce genotoxicity; transport through the epithelial cell layers (epithelial cell layers): up to 38%
3 | CC[C@H](C)[C@H]1C(=O)O[C@H](C(C)C)C(=O)N(C)[C@@H](C(C)C)C(=O)O[C@H](C(C)C)C(=O)N(C)[C@@H](C(C)C)C(=O)O[C@H](C(C)C)C(=O)N1C [ENN-B1, enniatin B1] | 0.82 ± 0.06 Syn | 0.90 ± 0.05 Add | 0.88 ± 0.07 Syn | 0.82 ± 0.06 Syn (key: Syn: Combination index (CI) < 0.9; Add: 0.9 ≤ CI ≤ 1; Ant: CI > 1) | 0.90 ± 0.05 Add (key: Syn: Combination index (CI) < 0.9; Add: 0.9 ≤ CI ≤ 1; Ant: CI > 1) | 0.88 ± 0.07 Syn (key: Syn: Combination index (CI) < 0.9; Add: 0.9 ≤ CI ≤ 1; Ant: CI > 1) |  |  | 10.46 ± 2.43^a % | 28.16 ± 3.37^e % | 0.51 ± 0.03^ab % | 0.60 ± 0.10^c % | 39.72 ± 4.74^ab % | 2 | > 50 | concentration with significant DNA damage (Caco-2 cells [4]): 3000 nM
4 | CC(C)[C@H]1C(=O)O[C@H](C(C)C)C(=O)N(C)[C@@H](C(C)C)C(=O)O[C@H](C(C)C)C(=O)N(C)[C@@H](C(C)C)C(=O)O[C@H](C(C)C)C(=O)N1C [ENN-B, enniatin B] | 0.79 ± 0.08 Syn | 0.87 ± 0.05 Syn | 1.11 ± 0.10 Ant | 0.79 ± 0.08 Syn (key: Syn: Combination index (CI) < 0.9; Add: 0.9 ≤ CI ≤ 1; Ant: CI > 1) | 0.87 ± 0.05 Syn (key: Syn: Combination index (CI) < 0.9; Add: 0.9 ≤ CI ≤ 1; Ant: CI > 1) | 1.11 ± 0.10 Ant (key: Syn: Combination index (CI) < 0.9; Add: 0.9 ≤ CI ≤ 1; Ant: CI > 1) |  |  | 24.08 ± 3.20^abc % | 25.49 ± 4.31^e % | 1.15 ± 0.25^b % | 0.31 ± 0.03^b % | 51.02 ± 7.70^bc % | 2 | > 50 | metabolites found by non-target U-HPLC-MS analysis (Caco-2 cells [1]): metabolite M6; genotoxic effect (Caco-2 cells [4]; 3 µM): did not show genotoxic effect
5 | COc1c(C)c2c(c(O)c1C/C=C(\C)CCC(=O)O)C(=O)OC2 [MPA, mycophenolic acid, reference compound] | 0.83 ± 0.07 Syn | 0.90 ± 0.04 Add | 0.85 ± 0.05 Syn | 0.83 ± 0.07 Syn (key: Syn: Combination index (CI) < 0.9; Add: 0.9 ≤ CI ≤ 1; Ant: CI > 1) | 0.90 ± 0.04 Add (key: Syn: Combination index (CI) < 0.9; Add: 0.9 ≤ CI ≤ 1; Ant: CI > 1) | 0.85 ± 0.05 Syn (key: Syn: Combination index (CI) < 0.9; Add: 0.9 ≤ CI ≤ 1; Ant: CI > 1) | no significant DNA damage |  | 57.27 ± 0.79^ef % | 39.77 ± 0.52^f % | 0.00 ± 0.00^a % | 0.02 ± 0.00^a % | 97.07 ± 0.27^e % |  | > 50 | IC50 [5]: > 156 nM
6 | C[C@H]1CCCC(=O)CCC/C=C/c2cc(O)cc(O)c2C(=O)O1 [ZEA, zearalenone] | 0.85 ± 0.07 Syn | 0.83 ± 0.03 Syn | 0.92 ± 0.01 Add | 0.85 ± 0.07 Syn (key: Syn: Combination index (CI) < 0.9; Add: 0.9 ≤ CI ≤ 1; Ant: CI > 1) | 0.83 ± 0.03 Syn (key: Syn: Combination index (CI) < 0.9; Add: 0.9 ≤ CI ≤ 1; Ant: CI > 1) | 0.92 ± 0.01 Add (key: Syn: Combination index (CI) < 0.9; Add: 0.9 ≤ CI ≤ 1; Ant: CI > 1) | no significant DNA damage | activated P-gp in dose-dependent manner | 32.23 ± 1.71^bc % | 54.24 ± 2.38^gh % | 0.19 ± 0.01^ab % | 0.05 ± 0.01^a % | 86.70 ± 0.67^de % | 25 | > 50 | concentration range damaging DNA in a concentration-dependent manner (HEK293 cells): 2500 to 20000 nM
7 | C[C@H]1CCC[C@H](O)CCC/C=C/c2cc(O)cc(O)c2C(=O)O1 [α-ZEA] |  |  |  |  |  |  |  |  |  |  |  |  |  |  |  | share of total metabolites produced by Caco-2 cells (Caco-2 cells [6]): 41%
8 | C[C@H]1CCC[C@@H](O)CCC/C=C/c2cc(O)cc(O)c2C(=O)O1 [β-ZEA] |  |  |  |  |  |  |  |  |  |  |  |  |  |  |  | share of total metabolites produced by Caco-2 cells (Caco-2 cells [6]): 32%
